Experimental data from article PMC3554773, “Screening of a Specific Peptide Binding to VPAC1 Receptor from a Phage Display Peptide Library” (PLoS ONE, 2013).
No end group written: not given here.

Legend:
[1] = target: T1, VPAC1 receptor (CHO-K1/VPAC1 cells) (Homo sapiens, UniProt P32241); test: in vitro subtractive panning of 12-mer phage display peptide library on CHO-K1/VPAC1 cells, DNA sequencing of clones; assay type: binding; conditions: 60 phage clones randomly selected after fourth round of panning; three lacked exogenous sequence
T1 construct: expressed in transfected cells
T1 sequence (P32241 31-457): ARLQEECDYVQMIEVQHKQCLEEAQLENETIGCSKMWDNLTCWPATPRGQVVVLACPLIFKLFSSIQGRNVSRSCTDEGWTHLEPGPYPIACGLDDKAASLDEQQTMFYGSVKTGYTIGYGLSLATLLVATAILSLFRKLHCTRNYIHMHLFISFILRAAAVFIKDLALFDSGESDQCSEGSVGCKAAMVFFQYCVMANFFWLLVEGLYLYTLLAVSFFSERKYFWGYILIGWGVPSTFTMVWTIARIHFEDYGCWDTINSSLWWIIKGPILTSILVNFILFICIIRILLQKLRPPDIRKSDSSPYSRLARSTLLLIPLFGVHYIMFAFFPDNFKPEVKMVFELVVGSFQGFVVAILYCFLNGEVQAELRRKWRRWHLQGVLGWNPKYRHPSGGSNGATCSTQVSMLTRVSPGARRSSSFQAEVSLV

[2] = target: T1, VPAC1 receptor (CHO-K1/VPAC1 cells); test: cellular ELISA, binding of phage clones to CHO-K1/VPAC1 versus wild-type CHO-K1 cells; conditions: 1×10^10 pfu/well, 37°C, 2 h, HRP-anti-M13, glutaral-fixed cells, triplicate, p<0.01
[3] = target: T1, VPAC1 receptor (CHO-K1/VPAC1 cells); test: competitive inhibition ELISA: binding of positive phage clone VP2 to CHO-K1/VPAC1 cells, inhibited by synthetic peptide
Description: Competitive binding inhibition between the positive phage clone and its encoded peptide was evaluated in this study using the competitive inhibition ELISA method. The procedure was similar to that of the cellular ELISA mentioned above in “Cell enzyme-linked immunosorbent assay”. Briefly, CHO-K1/VPAC1 cells were incubated with 100 µl of synthetic peptide encoded by the positive phage clone at various concentrations (0, 0.0001, 0.001, 0.01, 0.1, 1, 10 and 100 µg/ml) in a 96-well plate after it was blocked with 2% BSA. Subsequently, 1×10^10 pfu homologous positive phage clones was added to the cells and incubated at 37°C for 2 h. The unbound phages were washed away, and an HRP-conjugated anti-M13 monoclonal antibody was used to detect the bound phages as described above. The rate of inhibition was calculated using the following formula: rate of inhibition = (A value of inhibition control – A value of inhibition)/A value of inhibition control×100%. An unrelated peptide corresponding to an unrelated phage was used as a negative control.

| Sequence | Frequency (number of the peptide sequence appeared in the whole selected phage clones) [1] | binding affinity to CHO-K1/VPAC1 cells compared with CHO-K1 cells (OD450 nm) [2] | other results |
| --- | --- | --- | --- |
| TVTFAPLRMWHP [VP15] | 1 | – | – |
| GWLRSPSLLFSN [VP16] | 2 | higher affinity to CHO-K1/VPAC1 cells than CHO-K1 cells | – |
| GYTFQPLNEWAI [VP18] | 1 | – | – |
| TVKYSTLVEWPY [VP1] | 8 | higher affinity to CHO-K1/VPAC1 cells than CHO-K1 cells | – |
| DTFHSPLVALVS [VP5] | 5 | higher affinity to CHO-K1/VPAC1 cells than CHO-K1 cells | – |
| YTSHFPLETWPQ [VP6] | 5 | higher affinity to CHO-K1/VPAC1 cells than CHO-K1 cells | – |
| GFRFGALHEYNS [VP2] | – | – | IC50 of VP2 peptide compared with IC50 of VIP ([3]; inhibition of phage VP2 binding to CHO-K1/VPAC1 cells, VIP value from Figure 5A): significantly lower than the IC50 of VIP; IC50 ([3]; peptide 0-100 µg/ml, 1×10^10 pfu phage VP2, 37°C, 2 h): ~13.2 nM |
| SFRFFPLDMWPH [VP8] | 5 | higher affinity to CHO-K1/VPAC1 cells than CHO-K1 cells | – |
| GSFHSPLLAYVS [VP12] | 1 | – | – |
| HSTLKLGALTNY [VP11] | 1 | – | – |
| GGSIAASELEYY [VP10] | 2 | higher affinity to CHO-K1/VPAC1 cells than CHO-K1 cells | – |
| ETVRQAEELFYV [VP7] | 1 | – | – |
| AYTTVPYMATLP [VP9] | 1 | – | – |
| TWKFEPLGTFID [VP4] | 3 | – | – |
| TYTFRPLYEPPL [VP17] | 1 | – | – |
| DTGHSPEPGKVP [VP13] | 1 | – | – |
| NSIALINDTHKR [VP3] | 2 | – | – |
| GTFHSPLLDHKS [VP14] | 1 | – | – |
